Each structure is given as a SMILES string.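 Growth conditions: 96-well plates. Treatment: test compound, 48 hours, 5 concentrations. Analysis: linear interpolation between bracketing concentrations; unreached endpoints set to highest concentration. GI50 = concentration required for 50% inhibition of growth.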 Calls of active or inactive are those of the source. Cut-off read from the data, not from the text of the source: active = GI50 up to about 1.1 µM and inactive = higher.

Among the test systems are NCI/ADR-RES; CAKI-1; Hs-578T; BT-549; UO-31; EKVX; MDA-MB-435; COLO 205; M14; NCI-H23; T47D; U-251; MDA-MB-231; SF-539; HCC 2998; NCI-H226.
Common to all, as to assay: growth of human tumour cells (NCI), 48 h

With `C=C(Br)CN(C)CC(=C)Br`, the GI50 in the test on NCI/ADR-RES, in the test with CAKI-1, with Hs-578T, in the test on BT-549, with UO-31 and in the test with EKVX was > 100 µM (inactive) in each case. For the same molecule, the GI50 in the test with MDA-MB-435, in the test with COLO 205, in the test with M14, in the test on NCI-H23, in the test with T47D and in the test on U-251 was > 100 µM (inactive) throughout. Further, in the test on MDA-MB-231, the GI50 was > 100 µM (inactive).
With `CN(C)c1ccc(/C=C/c2ccnc3ccc4ccccc4c23)cc1`, the GI50 in the test with NCI/ADR-RES is 43.3 µM (inactive); in the test with CAKI-1 it was 38.4 µM (inactive); in the test with Hs-578T, 36.6 µM (inactive); in the test on BT-549 it was 37.5 µM (inactive); in the test on UO-31, 45.6 µM (inactive); with MDA-MB-435, 24.2 µM (inactive). For the same molecule, the GI50 in the test with COLO 205 was 53.1 µM (inactive); in the test on M14 it was 81.3 µM (inactive); with NCI-H23, 52.4 µM (inactive); with T47D it was 16.7 µM (inactive); in the test on U-251 it was 28.6 µM (inactive); in the test with SF-539, 28.4 µM (inactive). The GI50 in the test on MDA-MB-231 was 34.5 µM (inactive).
Regarding `CC1C2CC(C(C3C(=O)C4CC3C(C)(C)C4C)C2=O)C1(C)C` (stereo not given), the GI50 in the test with CAKI-1, in the test on Hs-578T, with BT-549, in the test with HCC 2998, in the test with UO-31 and with EKVX was > 100 µM (inactive) throughout. The GI50 in the test on MDA-MB-435, in the test on COLO 205, with M14, with NCI-H23, in the test with T47D and with U-251 was > 100 µM (inactive) throughout. Further, the GI50 with SF-539, in the test with MDA-MB-231 and in the test on NCI-H226 was > 100 µM (inactive) in each case.
Consider `O=C(NS(=O)(=O)OCC(Cl)(Cl)Cl)SCCC(F)(F)C(F)(F)C(F)(F)C(F)(F)C(F)(F)C(F)(F)F`, for which the GI50 with NCI/ADR-RES is 20.2 µM (inactive); with CAKI-1 it was 30.5 µM (inactive); in the test on Hs-578T, 19 µM (inactive); in the test with BT-549 it was 49 µM (inactive); in the test with UO-31, 38 µM (inactive); in the test with EKVX, 18.3 µM (inactive). The GI50 was 23.8 µM (inactive) in the test with MDA-MB-435; 17.9 µM (inactive) with COLO 205; 23.1 µM (inactive) in the test on M14; 20.1 µM (inactive) in the test on NCI-H23; 27.9 µM (inactive) with T47D; 23.6 µM (inactive) in the test with U-251. Further, the GI50 was 16.8 µM (inactive) in the test with SF-539, 25.4 µM (inactive) in the test with MDA-MB-231 and 25.9 µM (inactive) in the test with NCI-H226.
Take `CCC(Sc1cc(Cl)c(C)cc1S(=O)(=O)Nc1nc(N)nc(N(C)C)n1)C(=O)O` (stereo not given): the GI50 in the test on NCI/ADR-RES, in the test with CAKI-1, in the test on Hs-578T, with BT-549, with HCC 2998 and in the test on UO-31 was > 10 µM (inactive) throughout. Besides, the GI50 in the test with EKVX, in the test on COLO 205, in the test with M14, in the test with NCI-H23, in the test on T47D and with U-251 was > 10 µM (inactive) in each case. The GI50 in the test with SF-539 and in the test on NCI-H226 was > 10 µM (inactive) each time.
With `NC(=O)c1oc([N+](=O)[O-])c(-c2ccccc2)c1-c1ccccc1`, the GI50 was 19.4 µM (inactive) in the test on NCI/ADR-RES; 18.4 µM (inactive) in the test on CAKI-1; 0.0752 µM (active) in the test with Hs-578T; 8 µM (inactive) in the test on BT-549; 16.3 µM (inactive) with UO-31; 17.6 µM (inactive) in the test with EKVX. Besides, the GI50 is 14.9 µM (inactive) with MDA-MB-435; 16.8 µM (inactive) in the test on COLO 205; 17.7 µM (inactive) in the test on M14; 15.4 µM (inactive) with NCI-H23; 16.3 µM (inactive) in the test on T47D; 24.3 µM (inactive) in the test with U-251. Moreover, the GI50 is 18.5 µM (inactive) in the test with SF-539, 13.5 µM (inactive) in the test on MDA-MB-231 and 11 µM (inactive) in the test on NCI-H226.
On to `Nc1nc(Cl)cc(NCC2(CO)CCC(OCc3ccccc3)C2)n1` (stereo not given), for which the GI50 is 3.81 µM (inactive) in the test with NCI/ADR-RES; 8.09 µM (inactive) in the test on CAKI-1; 14.4 µM (inactive) in the test with Hs-578T; 13.9 µM (inactive) with BT-549; 11.3 µM (inactive) in the test with UO-31; 10.2 µM (inactive) in the test with EKVX. Also, the GI50 is 14.8 µM (inactive) in the test with MDA-MB-435; 21.1 µM (inactive) in the test with COLO 205; 20.7 µM (inactive) in the test on M14; 0.641 µM (active) in the test with NCI-H23; 1.39 µM (inactive) in the test with T47D; 29.9 µM (inactive) in the test with U-251. Also, the results for the GI50 in the test with SF-539, in the test on MDA-MB-231 and in the test on NCI-H226 were 29.7 µM (inactive), 7.45 µM (inactive) and 14.8 µM (inactive), respectively.
Consider `CN(C)/C=N/CC(O)c1ccccc1` (stereo not given), for which the GI50 in the test with NCI/ADR-RES was > 100 µM (inactive); in the test on CAKI-1, > 100 µM (inactive); with Hs-578T, 28.5 µM (inactive); in the test on BT-549, > 100 µM (inactive); in the test with UO-31 it was > 100 µM (inactive); in the test with EKVX it was > 100 µM (inactive). The GI50 was > 100 µM (inactive) in the test on MDA-MB-435; > 100 µM (inactive) in the test on COLO 205; > 100 µM (inactive) with M14; > 100 µM (inactive) in the test on NCI-H23; > 100 µM (inactive) in the test on T47D; > 10 µM (inactive) in the test on U-251. Moreover, the GI50 with SF-539, with MDA-MB-231 and with NCI-H226 was > 100 µM (inactive) throughout.
Turning to `C=C(C)COc1ccc2c(c1)CCC1C2CCC2(C)C(=O)/C(=N/O)CC12` (stereo not given), the GI50 with NCI/ADR-RES is 4.27 µM (inactive); in the test on CAKI-1, 1.21 µM (inactive); in the test with Hs-578T, 3.67 µM (inactive); in the test on BT-549 it was 6.41 µM (inactive); in the test with UO-31 it was 3.9 µM (inactive); with EKVX, 2.59 µM (inactive). Besides, the GI50 was 2.27 µM (inactive) in the test with MDA-MB-435; 3.21 µM (inactive) in the test on COLO 205; 4.13 µM (inactive) in the test on M14; 3.21 µM (inactive) with NCI-H23; 2.2 µM (inactive) in the test with T47D; 4.09 µM (inactive) in the test with U-251. The GI50 in the test with SF-539 is 12.8 µM (inactive); in the test with MDA-MB-231 it was 1.66 µM (inactive); with NCI-H226 it was 9.31 µM (inactive).
On to `O=S(=O)(N/C(=N\O)Nc1ccc(Cl)cc1)c1cc2ccccc2s1`, for which the GI50 with NCI/ADR-RES is 20.2 µM (inactive); with CAKI-1 it was 15.8 µM (inactive); in the test with Hs-578T, 18.7 µM (inactive); with BT-549 it was 17.1 µM (inactive); in the test on UO-31 it was 33.9 µM (inactive); in the test with EKVX, 12.9 µM (inactive). Also, the GI50 in the test on MDA-MB-435 was 16.6 µM (inactive); in the test on COLO 205, 15.2 µM (inactive); in the test on M14 it was 17.9 µM (inactive); in the test on NCI-H23, 16 µM (inactive); in the test on T47D, 21.9 µM (inactive); in the test on U-251, 15.2 µM (inactive). The values for the GI50 with SF-539, in the test on MDA-MB-231 and with NCI-H226 were 18.5 µM (inactive), 17.3 µM (inactive) and 15.4 µM (inactive), respectively.
